Test results reported in US6914045B2, “Glycopeptide antibiotics” (Wyeth Holdings Corporation, priority 2001, dated 2005).
Values after ≈ are worked out from the molar mass of the structure shown.

Columns and labels:
Enterococcus sp. = experiment: in vitro antibacterial evaluation, MIC by broth dilution; format: cell-based; conditions: broth dilution, 18 hours at 35° C.
Procedure, shortened: (§1)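 Broth dilution per NCCLS M7-A2 in Mueller-Hinton II medium, inoculum 5×10^5 CFU/mL, antibiotic range 64-0.06 μg/mL. MIC taken as lowest concentration inhibiting growth; Gram-positive panel includes recent clinical isolates resistant to methicillin, penicillin and/or vancomycin.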

Streptococcus sp. = experiment: as above; format: cell-based; conditions: broth dilution, 18 hours at 35° C.
Procedure, shortened: as §1

Staphylococcus sp. = experiment: as above; format: cell-based; conditions: broth dilution, 18 hours at 35° C.
Procedure, shortened: as §1

Escherichia coli = experiment: as above; format: cell-based; conditions: 18 hours at 35° C.
Procedure, shortened: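 Read-out: the lowest concentration at which the test strain fails to grow. Serial dilutions (64-0.06 μg/mL) in Muller-Hinton II […], 5×10^5 CFU/mL inoculum, NCCLS M7-A2 procedure.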

[1] = anatomic pathology (histopathology of heart and kidney) in mice; format: in vivo; conditions: CD-1 mice, 20 mg/kg intravenously daily for 9 days, necropsy day 10, microscopic histopathology
Protocol: Samples of tissues from necropsied mice were formalin-fixed, paraffin-embedded, sectioned, stained with hematoxylin and eosin, and examined microscopically. Histopathologic findings were recorded. These findings were subjectively graded on a scale corresponding to slight, mild, moderate, marked and severe as compared to untreated controls.

[2] = clinical pathology (serum clinical chemistry) in mice; format: in vivo; conditions: CD-1 mice, 20 mg/kg intravenously daily for 9 days, sera day 10
Protocol: 20-day-old CD-1 mice were divided into a vehicle control group (5 mice) and a treatment group (5 mice). Samples of glycopeptide antibiotics were administered at 20 mg/kg intravenously daily for 9 days.

## CC(C)CC(=O)OC1C(OC2C(CO)OC(Oc3ccc(CC4NC(=O)C(C(C)c5ccccc5)NC(=O)CNC(=O)C(CO)NC(=O)C(CC5CNC(=N)N5C5OC(CO)C(O)C(O)C5O)NC(=O)C(CC5CNC(=N)N5)NC4=O)cc3)C(O)C2O)OC(CO)C(O)C1O (stereo not drawn) [Example 277b, Cyclo[3-(2-iminoimidazolidin-4-yl)alanyl-3-(3-hexogyranosyl-2-iminoimidazolidin-4-yl)-alanylserylglycyl-β-methylphenylalanyl-O-[4-O-[2-O-(3-methylbutanoyl)hexopyranosyl]-hexopyranosyl]tyrosyl]]
Enterococcus sp.; Enterococcus avium (GC 4558)
  MIC Enterococcus avium (GC 4558): >64 µg/mL
Enterococcus sp.; Enterococcus faecalis (ATCC 29212)
  MIC Enterococcus faecalis (ATCC 29212): >64 µg/mL
Enterococcus sp.; Enterococcus faecalis (GC 4553)
  MIC Enterococcus faecalis (GC 4553): >64 µg/mL
Enterococcus sp.; Enterococcus faecalis (GC 4554)
  MIC Enterococcus faecalis (GC 4554): >64 µg/mL
Enterococcus sp.; Enterococcus faecalis (GC 6189)
  MIC Enterococcus faecalis (GC 6189): >64 µg/mL
Enterococcus sp.; Enterococcus faecium (GC 2243)
  MIC Enterococcus faecium (GC 2243): >64 µg/mL
Enterococcus sp.; Enterococcus faecium (GC 4556)
  MIC Enterococcus faecium (GC 4556): >64 µg/mL
Enterococcus sp.; Enterococcus faecium (GC 4557)
  MIC Enterococcus faecium (GC 4557): >64 µg/mL
Enterococcus sp.; strain ATCC 29212
  MIC Enterococcus faecalis (ATCC 29212): >64 µg/mL
Enterococcus sp.; strain GC 2242
  MIC Enterococcus faecalis (GC 2242): >64 µg/mL
Enterococcus sp.; strain GC 2243
  MIC Enterococcus faecium (GC 2243): >64 µg/mL
Enterococcus sp.; strain GC 2691
  MIC Enterococcus faecalis (GC 2691): >64 µg/mL
Enterococcus sp.; strain GC 3059
  MIC Enterococcus faecalis (GC 3059): >64 µg/mL
Enterococcus sp.; strain GC 4552
  MIC Enterococcus faecalis (GC 4552): >64 µg/mL
Enterococcus sp.; strain GC 4553
  MIC Enterococcus faecalis (GC 4553): >64 µg/mL
Enterococcus sp.; strain GC 4554
  MIC Enterococcus faecalis (GC 4554): >64 µg/mL
Enterococcus sp.; strain GC 4556
  MIC Enterococcus faecium (GC 4556): >64 µg/mL
Enterococcus sp.; strain GC 4557
  MIC Enterococcus faecium (GC 4557): >64 µg/mL
Enterococcus sp.; strain GC 4558
  MIC Enterococcus avium (GC 4558): >64 µg/mL
Enterococcus sp.; strain GC 6189
  MIC Enterococcus faecalis (GC 6189): >64 µg/mL
Streptococcus sp.; strain ATCC 6301
  MIC Streptococcus pneumoniae (ATCC 6301): 64 µg/mL (≈ 47.5 µM)
Streptococcus sp.; strain GC 1894
  MIC Streptococcus pneumoniae (GC 1894): >64 µg/mL
Streptococcus sp.; strain GC 4563
  MIC Streptococcus pyogenes (GC 4563): >64 µg/mL
Streptococcus sp.; strain GC 4564
  MIC Streptococcus agalactiae (GC 4564): >64 µg/mL
Streptococcus sp.; strain GC 4565
  MIC Streptococcus pneumoniae (GC 4565): >64 µg/mL
Staphylococcus sp.
  MIC Coagulase Negative Staphylococcus (GC 4547): >64 µg/mL
  MIC Coagulase Negative Staphylococcus (GC 4548): >64 µg/mL
  MIC Coagulase Negative Staphylococcus (GC 4549): >64 µg/mL
  MIC Coagulase Negative Staphylococcus (GC 4551): >64 µg/mL
  MIC Coagulase Negative Staphylococcus (GC 6257): >64 µg/mL
  MIC Staphylococcus aureus (ATCC 29213): >64 µg/mL
  MIC Staphylococcus aureus (GC 1131): >64 µg/mL
  MIC Staphylococcus aureus (GC 3051): >64 µg/mL
  MIC Staphylococcus aureus (GC 3053): >64 µg/mL
  MIC Staphylococcus aureus (GC 4541): >64 µg/mL
  MIC Staphylococcus aureus (GC 4542): >64 µg/mL
  MIC Staphylococcus aureus (GC 4544): >64 µg/mL
  MIC Staphylococcus aureus (GC 4545): >64 µg/mL
  MIC Staphylococcus aureus-SMITH (GC 4543): >64 µg/mL
  MIC Staphylococcus haemolyticus (GC 4546): >64 µg/mL
Staphylococcus sp.; strain ATCC 29213
  MIC Staphylococcus aureus (ATCC 29213): >64 µg/mL
Staphylococcus sp.; strain GC 1131
  MIC Staphylococcus aureus (GC 1131): >64 µg/mL
Staphylococcus sp.; strain GC 3051
  MIC Staphylococcus aureus (GC 3051): >64 µg/mL
Staphylococcus sp.; strain GC 3053
  MIC Staphylococcus aureus (GC 3053): >64 µg/mL
Staphylococcus sp.; strain GC 4541
  MIC Staphylococcus aureus (GC 4541): >64 µg/mL
Staphylococcus sp.; strain GC 4542
  MIC Staphylococcus aureus (GC 4542): >64 µg/mL
Staphylococcus sp.; strain GC 4544
  MIC Staphylococcus aureus (GC 4544): >64 µg/mL
Staphylococcus sp.; strain GC 4545
  MIC Staphylococcus aureus (GC 4545): >64 µg/mL
Staphylococcus sp.; strain GC 4546
  MIC Staphylococcus haemolyticus (GC 4546): >64 µg/mL
Staphylococcus sp.; strain GC 4547
  MIC Coagulase Negative Staphylococcus (GC 4547): >64 µg/mL
Staphylococcus sp.; strain GC 4548
  MIC Coagulase Negative Staphylococcus (GC 4548): >64 µg/mL
Staphylococcus sp.; strain GC 4549
  MIC Coagulase Negative Staphylococcus (GC 4549): >64 µg/mL
Staphylococcus sp.; strain GC 4551
  MIC Coagulase Negative Staphylococcus (GC 4551): >64 µg/mL
Staphylococcus sp.; strain GC 6257
  MIC Coagulase Negative Staphylococcus (GC 6257): >64 µg/mL
Staphylococcus sp.; strain SMITH GC 4543
  MIC Staphylococcus aureus-SMITH (GC 4543): >64 µg/mL
Escherichia coli; Escherichia coli (ATCC 25922)
  MIC Escherichia coli (ATCC 25922): >64 µg/mL
Escherichia coli; Escherichia coli (GC 4559)
  MIC Escherichia coli (GC 4559): >64 µg/mL
Escherichia coli; Escherichia coli (GC 4560)
  MIC Escherichia coli (GC 4560): 32 µg/mL (≈ 23.7 µM)
[1]
  Anatomical Pathology (Day 10), Heart: 0
  Anatomical Pathology (Day 10), Kidney: +
[2]
  Clinical Chemistry (Day 10) % of Control, ALT: +164%
  Clinical Chemistry (Day 10) % of Control, AST: +138%
  Clinical Chemistry (Day 10) % of Control, BUN: +113%
